This note sets out measurements from patent US11920136B2, “Transglutaminase-mediated conjugation” (Tallac Therapeutics, Inc., priority 2020, dated 2024).

For one series, the system named is CD19+CD20+ B cells. Briefly: Anti-CD22 (TNT127):CpG conjugates on human PBMCs, CD40 on CD19+ B cells (Examples 19-20). Type of series: cell-based. The note with it: conjugated to antibody TNT127 (DAR1), compared to the 12070 conjugate. As for the experimental part: Trima residuals were received from Vitalant and diluted 1:2 with Phosphate Buffered Saline (PBS, Gibco). Diluted blood was split into two tubes and underplayed with 15 mL FICOLL® PAQUE medium (GE Healthcare). Tubes were centrifuged for 30 minutes at 400×g. PBMCs were collected from the interface, resuspended and washed in FACS buffer (PBS with 0.5% Bovine Serum Albumin (Gibco)). After one wash, PBMCs were resuspended in Complete RPMI (RPMI+10% FBS). PBMCs were immediately plated onto a 96-well format (500K/well) in Complete RPMI. Five-fold serial dilutions were added to the cells from 100 nM to 6.4 pM conjugated antibody at 37° C. under 5% CO2 for 48 hours. Cells were pelleted by centrifugation for five minutes at 400×g and stained at 4° C. in Fixable Viability Dye eFluor 780 (Thermo Fisher Scientific) diluted 1:4000 in PBS. Cells were centrifuged and stained at 4° C. in FACS buffer for 30 minutes containing FcR Blocking Reagent (Miltenyi Biotec), anti-CD19, anti-CD20, anti-CD40, anti-HLADR and anti-CD80. Cells were centrifuged and washed twice in FACS buffer and fixed in 0.5% paraformaldehyde. Cells were analyzed on ATTUNE™ NxT Flow Cytometer (Thermo Fisher Scientific), with subsequent data analysis by FLOWJO™ 10.7 (Treestar). Dead cells were excluded by gating on the eFluor 780-negative population.
The activity of CD22 antibody-CpG conjugates DAR1 and DAR2 were compared for activity.

The next series concerns CD19 positive B cells. The series can be described thus: Free CpG activity on CD40 expression by CD19+ B cells in human PBMCs (Examples 16-17). The following applies: compared with 12070. In kind it is cell-based. The protocol: Trima residuals were received from Vitalant and diluted 1:2 with Phosphate Buffered Saline (PBS, Gibco). Diluted blood was split into two tubes and underplayed with 15 mL Ficoll-Paque (GE Healthcare). Tubes were centrifuged for 30 minutes at 400×g. PBMCs were collected from the interface, resuspended and washed in FACS buffer (PBS with 0.5% Bovine Serum Albumin (Gibco)). After one wash, PBMCs were resuspended in Complete RPMI (RPMI+10% FBS).
PBMCs were immediately plated onto a 96-well format (500K/well) in Complete RPMI. Five-fold serial dilutions were added to the cells from 1 uM to 64 pM of CpG polynucleotides at 37° C. under 5% CO2 for 48 hours. Cells were pelleted by centrifugation for five minutes at 400×g and stained at 4° C. in Fixable Viability Dye eFluor 780 (Thermo Fisher) diluted 1:4000 in PBS. Cells were centrifuged and stained at 4° C. in FACS buffer for 30 minutes containing FcR Blocking Reagent (Miltenyi Biotec), anti-CD19, anti-CD20, anti-CD40, anti-HLADR and anti-CD80. Cells were centrifuged and washed twice in FACS buffer and fixed in 0.5% paraformaldehyde. Cells were analyzed on ATTUNE™ NxT Flow Cytometer (Thermo Fisher Scientific), with subsequent data analysis by FLOWJO™ 10.7 (Treestar). […] B cells were identified as CD19+CD20+ cells and level of activation marker was assessed by median fluorescent intensity. […]

The subject of series [1] is EMT6 mouse mammary carcinoma cells. Briefly: EMT6 breast cancer model, intratumoral administration. The following applies: intratumorally 2 doses every 3 days at 24 uM. In kind it is in vivo, BALB/c mice. The protocol:
100 uL of suspended cells were subcutaneously implanted into the right flank of 6 week old female BALB/c mice (Charles River). Tumor size was measured and recorded twice a week with calipers starting 7 days post implantation until duration of the study, approximately 25 days later. Tumor volume was calculated using the following formula: (length×width×width)/2. Once tumors reached on average 180 mm^3, approximately 7 days post implantation, mice were randomized by tumor size and treatments were initiated.

A further series relates to B cells. The series can be described thus: B cell activation by anti-CD22 (RFB4):CpG conjugates in human PBMCs (Examples 2 and 4). The note with it: for B cell activation (CD19, CD40, CD69, CD86, HLADR expression): RFB4 conjugates, DAR1, 96 hours; for B cell activation as determined by CD80 expression: conjugate to anti-CD22 antibody (SEQ ID NO: 56 and 57), DAR1, compared with conjugate of CpG (SEQ ID NO: 3) and naked CpG. Type of series: cell-based. As for the experimental part:
(§1) PBMCs were immediately plated onto a 96-well format (500K/well) in Complete RPMI (RPMI+10% FBS). Five-fold serial dilutions were added to the cells from 100 nM to 6.4 pM of antibody and conjugated antibody and 1 uM to 64 pM of CpG polynucleotides at 37° C. under 5% CO2 for 48 to 96 hours. Cells were pelleted by centrifugation for five minutes at 400×g and stained at 4° C. in Fixable Viability Dye eFluor 780 (Thermo Fisher Scientific) diluted 1:4000 in PBS. Cells were centrifuged and stained at 4° C. in FACS buffer for 30 minutes containing FcR Blocking Reagent (Miltenyi Biotec), anti-CD19, anti-CD20, anti-CD40, anti-HLADR and anti-CD80 for B cell assays and anti-CD14, anti-CD3, anti-CD19, anti-CD14, anti-CD123, anti-CD11 c and anti-CD86 for pDC assays. Cells were centrifuged and washed twice in FACS buffer and fixed in 0.5% paraformaldehyde. CountBright™ Absolute Counting Beads (Thermo Fisher) were added to each well to count the number of cells. Cells were analyzed on ATTUNE™ NxT Flow Cytometer (Thermo Fisher Scientific), with subsequent data analysis by Flowjo 10.7 (Treestar). Dead cells were excluded by gating on the eFluor 780-negative population. Lineage specific cells were first excluded (CD19, CD3, CD14) prior to gating CD123^+CD11c^− cells to identify pDC and gating CD19^+, CD20^+ or CD19^+CD20^+ cells to identify B cells.
Trima residuals were received from Vitalant and diluted 1:4 with Phosphate Buffered Saline (PBS, Gibco). Diluted blood was split into two tubes and underplayed with 15 mL Ficoll-Paque (GE Healthcare). Tubes were centrifuged for 30 minutes at 400×g. PBMCs were collected from the interface and resuspended in FACS buffer (PBS with 0.5% Bovine Serum Albumin (Gibco)).
as §1, with “antiCD11” for “anti-CD11”, “COUNTBRIGHT™” for “CountBright™”, “Fisher Scientific)” for “Fisher)”
Various B-cell and pDC specific antibodies were conjugated with CpG 12070 (SEQ ID NO: 3), CpG (SEQ ID NOs: 9, 12, 20, 27 and 28), all with the DAR1 configuration, at their C-terminus heavy chain Q-tag ([…]) (SEQ ID NO: 49) via transglutaminase reaction. The conjugated antibodies were subsequently tested for their effects on proliferation and/or activation. […] As shown in FIGS. 5A-5D, the anti-CD22-CpG antibodies enhanced the activation of B cells as compared to naked CpG polynucleotide 12070 (SEQ ID NO: 3) and human IgG control antibody after 96 hours. As determined by CD19, CD40, CD69, CD86, and HLADR expression, only anti-CD22-CpG and CpG alone induced B cell activation. Direct delivery of CpG by a targeting antibody results in higher activation as compared to CpG alone.

As to “7-6: CpG oligonucleotide: "CpG 7-6 (SEQ ID NO:34)" (DNA UCGTCGTGTCGTTT; chemically modified, pattern not given here)”, the CD40 expression entry in the series with CD19+CD20+ B cells is listed as “substantially better activity”. In the series on CD19 positive B cells, the “CD40 expression in PBMC from three donors (D559, D804 and D643)” value is reported as “higher activities”.
With “CpG-4253: "the free CpG (CpG-4253)"; apparently "4523 murine CpG oligonucleotide", "tucgtcgtgacgtt-c3" (SEQ ID NO:121) (DNA TUCGTCGTGACGTT; 3' C3 spacer, chemistry not fully specified; listed as Mus musculus)”, the anti-tumor potency result in series [1] is recorded as “showed anti-tumor potency”.
In the case of “SEQ ID NO: 9: "modified CpGs"; tested "as an antibody-CpG conjugate" "to anti-CD22 antibody (SEQ ID NO: 56 and SEQ ID NO: 57)" (DNA UCGTCGTGTCGTTT; modified CpG; (1)..(14) Linkages as shown in Table 2 of the specification; (1)..(14) Modified as shown in Table 2 of the specification)”, in the series on B cells, the “B cell activation (CD19, CD40, CD69, CD86, HLADR expression)” value is given as “enhanced activity” and the “B cell activation as determined by CD80 expression” value (“B cell activation as determined” for short) is given as “increased B cell activation”.
With “SEQ ID NO: 12: "modified CpGs"; tested "as an antibody-CpG conjugate" "to anti-CD22 antibody (SEQ ID NO: 56 and SEQ ID NO: 57)" (DNA UCGTCGTGTCGTTT; modified CpG; (1)..(14) Linkages as shown in Table 2 of the specification; (1)..(14) Modified as shown in Table 2 of the specification)”, the “B cell activation as determined” value in the series on B cells is “increased B cell activation”.
For the substance “SEQ ID NO: 13: "modified CpGs"; tested "as an antibody-CpG conjugate" "to anti-CD22 antibody (SEQ ID NO: 56 and SEQ ID NO: 57)" (DNA UCGTCGTGTCGTTT; modified CpG; (1)..(14) Linkages as shown in Table 2 of the specification; (1)..(14) Modified as shown in Table 2 of the specification)”, in the series with B cells, the “B cell activation as determined” value is given as “increased B cell activation”.
Same read-out and setting: as for “SEQ ID NO: 15: "modified CpGs"; tested "as an antibody-CpG conjugate" "to anti-CD22 antibody (SEQ ID NO: 56 and SEQ ID NO: 57)" (DNA UCGTCGTGTCGTT; modified CpG; (1)..(13) Linkages as shown in Table 2 of the specification; (1)..(13) Modified as shown in Table 2 of the specification)”, the entry is “increased B cell activation”.
For “SEQ ID NO: 20: "modified CpGs"; tested "as an antibody-CpG conjugate" "to anti-CD22 antibody (SEQ ID NO: 56 and SEQ ID NO: 57)" (DNA UCGTCGTGTCGTT; modified CpG; (1)..(13) Linkages as shown in Table 2 of the specification; (1)..(13) Modified as shown in Table 2 of the specification)”, in the series on B cells, the “B cell activation (CD19, CD40, CD69, CD86, HLADR expression)” value is “enhanced activity” and the “B cell activation as determined” value is “increased B cell activation”.
